Common to all, as to format: cell-based, human
One data set deals with normal hepatocytes. Briefly: Effect of copper ion accumulation on cell viability (CCK-8). The conditions noted are these: 48 hours. On the procedure:
(§1) 3.4 Effect of copper ion accumulation on cell viability: The induced cells were digested and evenly inoculated in a 96-well plate, with about 3×10^4 cells per well, and edge wells were filled with sterile PBS. After the cells were adhered to the wall, a copper sulfate or copper chloride solution in different concentrations (0 mM, 0.5 mM, 1 mM, and 1.5 mM) were added, and 6 replicate wells were set in each group. The wells without cells were set as blank wells. After incubation at 37°C for 48 hours (fresh culture medium was replaced every 22 hours to 26 hours), the original culture medium was discarded, and the cells were washed three times with DPBS. Fresh culture medium (100 µL per well) was added, and a 10 µL CCK-8 reaction solution was added to each well, followed by incubating at 37 °C in the dark for 4 hours. After the incubation, the absorbance at 450 nm was detected using a microplate reader.

The test system of data set [1] is hepatolenticular degeneration hepatocytes. The data set is described as above. Particulars: 48 hours. The method, then: as §1
Data set [2] concerns ATP7B gene in hepatolenticular degeneration hepatocytes. The data set is described as follows: Detection of ATP7B gene expression (qPCR). The conditions noted are these: after incubation with 100 µM to 300 µM copper sulfate or copper chloride. The method, then:
(§2) 3.1 Detection of ATP7B gene expression: Cells on the last day of induction were collected, and ATP7B gene expression levels in the hepatocytes before and after incubation with 100 µM to 300 µM of copper sulfate or copper chloride were detected by qPCR method, with GAPDH gene as the internal reference. Primers were used for validation. The qPCR method was performed as follows: 95°C for 5 minutes; 45 cycles (94°C for 40 seconds, 54°C to 58°C for 10 seconds, 72°C for 10 seconds); and 72°C extension for 5 minutes.
For orientation: In qPCR the cycle at which signal appears reflects the starting amount.

In data set [3] the test system is ATP7B gene in normal hepatocytes. The data set is described as follows: Detection of ATP7B gene expression (qPCR). Particulars: after incubation with 100 µM to 300 µM copper sulfate or copper chloride. On the procedure: as §2
The test system of data set [4] is ATP7B protein in hepatolenticular degeneration hepatocyte. The data set is described as follows: Detection of ATP7B protein expression (Western blotting). Particulars: after incubation with 100 µM to 300 µM copper sulfate or copper chloride. On the procedure: (§3) 3.2 Detection of ATP7B protein expression: Cells on the last day of induction were collected, and ATP7B protein expression levels in the hepatocytes before and after incubation with 100 µM to 300 µM of copper sulfate or copper chloride were detected by Western blotting method, with GAPDH protein as the internal reference. The induced cells were digested and collected in a 1.5 mL EP tube. An appropriate amount of protein lysis buffer was added depending on the cell solution volume (adding 200 µL RIPA lysis buffer for 1×10^6 cells). The cell solution was pipetted up and down to mix, and the cells were lysed in an ice bath with an ultrasonic cell disruptor for 15 minutes, then centrifuged at 13000 ×g and 4°C for 10 minutes. The supernatant was transferred to a new EP tube, and the protein concentration was detected using a BCA protein quantification kit. Polyacrylamide gel for SDS-PAGE was prepared, including preparing an 8% separating gel and a stacking gel. After the stacking gel was solidified, the comb was carefully pulled out. After a 40 µg sample and a 5 µL protein marker were loaded, the electrophoresis started at a 110 V constant voltage. After the Loading Buffer ran out of the separating gel, the electrophoresis stopped. […]
Background: Immunoblotting shows a protein as a band on a membrane.

Data set [5] concerns ATP7B protein in normal hepatocyte. The description is as above. Particulars: after incubation with 100 µM to 300 µM copper sulfate or copper chloride. The method, then:
as §3

By cell viability is commonly meant a read-out of living cells in per cent, often relative to untreated cells. High values mean better survival, low ones a greater loss of cells. Consider `[Cu+2]` [copper ions], for which the cell viability in the data set with normal hepatocytes (0.5 mM copper ions) was 95.33%; in the data set on normal hepatocytes (1 mM copper ions), 83.78%; with normal hepatocytes (1.5 mM copper ions) it was 73.53%; in data set [1] (0.5 mM copper ions), 93.25%; in data set [1] (1 mM copper ions), 67.49%; in data set [1] (1.5 mM copper ions) it was 34.8%. Moreover, the “expression level of the ATP7B gene” value is “not upregulated significantly” in data set [2] and “significantly upregulated” in data set [3]. Moreover, the “expression level of the ATP7B protein” value in data set [4] is “still expresses a low level of the ATP7B protein”; in data set [5] it was “significantly increased”.

For the origin of these results see EP4610348A1, “HEPATOLENTICULAR DEGENERATION CELL, PREPARATION METHOD THEREFOR, AND EVALUATION METHOD THEREFOR” (GUANGXIU-GAOXIN LIFE SCIENCES CO., LTD. HUNAN, priority 2022, dated 2024).
